According to US20040006061A1, “Alkoxybenzylamine” (priority 2001, published 2004):
Where two headings read alike, the source gives them in different places.

Assays:
[1] = test system: Staphylococcus hominis DSM 20328; test: Determination of the Minimum Inhibitory Concentration (MIC value) in microtitre plates, Staphylococcus hominis; assay type: cell-based; conditions: Staphylococcus hominis, DSM20328, 48 h, read-out: MIC [μg/ml] SH
Description: (§1) Determination of the Minimum Inhibitory Concentration (MIC Value) in Microtitre Plates
Casein-soybean flour-peptone broth for preparation of pre-cultures of test bacteria and yeast.
Staphylococcus hominis DSM 20328 […]
(§2) The test substances are pre-dissolved in dimethyl sulfoxide (DMSO) and tested in a dilution series of 1:2.
(§3) The bacteria are cultured overnight in CASO broth and washed off using 10 ml of 0.85% sodium chloride solution (+0.1% Triton X-100).
(§4) All the test organisms are adjusted to an organism count of 1-5×10^6 CFU/ml using 0.85% sodium chloride solution.
(§5) The test substances are pre-pipetted into microtitre plates in amounts of 8 μl per well.
(§6) Pre-diluted test organism suspensions are diluted 1:100 in CASO broth.
(§7) The test batches are incubated for 48 hours at 37° C.
(§8) After incubation, the growth is determined on the basis of the turbidity of the test batches (optical density) at 620 nm in a microplate reader.
(§9) The minimum inhibitory concentration (MIC value) is the concentration of substance at which there is found (compared to the growth of the control) an appreciable inhibition of growth (≦20% growth) of the test organisms.
(§10) One microtitre plate is used for each test organism and substance concentration.
(§11) All the substances are tested in duplicate.

[2] = test system: Escherichia coli NCTC 8196; test: Determination of the Minimum Inhibitory Concentration (MIC value) in microtitre plates, Escherichia coli; assay type: cell-based; conditions: Escherichia coli, NCTC8196, 48 h, read-out: MIC [μg/ml] EC
Description: as §1
Casein-soybean flour-peptone broth for preparation of pre-cultures of test bacteria and yeast. […]
Escherichia coli NCTC 8196
as §2, §3, §4, §5, §6, §7, §8, §9, §10, §11

[3] = Staphylococcus hominis DSM 20328, CASO broth, 48 hours at 37° C., MIC = ≦20% growth (optical density at 620 nm)
[4] = Escherichia coli NCTC 8196, CASO broth, 48 hours at 37° C., MIC = ≦20% growth (optical density at 620 nm)

SMILES	MIC [1, 3]	MIC [2, 4]	MIC [1]	MIC [2]
CCCCCCCCCCCCOc1ccc(CN2CCCCC2)cc1OC [Compound of formula (3)]	3.75 µg/mL	> 120 µg/mL		
CCCCCCCCCCCCOc1ccc(CN2CCN(C)CC2)cc1OC [Compound of formula (12)]	3.75 µg/mL	120 µg/mL		
CCCOc1ccc(CN(C(C)C)C(C)C)cc1OC [Compound of formula (59)]	> 120 µg/mL	> 120 µg/mL		
CCCCCCOc1ccc(CN(C)Cc2ccccc2)cc1OC [Compound of formula (31)]	> 120 µg/mL	> 120 µg/mL		
CCCCCCCCCCCCOc1ccc(CN(C(C)C)C(C)C)cc1OC [Compound of formula (11)]	> 120 µg/mL	> 120 µg/mL		
CCCCCCCCCCCCN(C)Cc1ccc(OCCCCCC)c(OC)c1 [Compound of formula (35)]	15 µg/mL	> 120 µg/mL		
CCCCCCCCOc1ccc(CN2CCNCC2)cc1OC [Compound of formula (53)]			> 120 µg/mL	> 120 µg/mL
CCCCCCOc1ccc(CN2CCNCC2)cc1OCCCCCC [Compound of formula (101)]	> 120 µg/mL	> 120 µg/mL		
